The record followed here is ChEMBL document CHEMBL1817578, “2-({6-[(3R)-3-amino-3-methylpiperidine-1-yl]-1,3-dimethyl-2,4-dioxo-1,2,3,4-tetrahydro-5H-pyrrolo[3,2-d]pyrimidine-5-yl}methyl)-4-fluorobenzonitrile (DSR-12727): a potent, orally active dipeptidyl peptidase IV inhibitor without mechanism-based inactivation of CYP3A” (Bioorg Med Chem, 2011).

The term IC50 denotes the concentration needed to halve the response being measured. A lower IC50 goes with inhibition by little substance.

Structures are written as SMILES. A value given as a limit tells only on which side of the number the result lay.

One assay deals with T1, Cytochrome P450 2A6 (Homo sapiens, UniProt P11509).
T1 sequence (P11509 whole entry): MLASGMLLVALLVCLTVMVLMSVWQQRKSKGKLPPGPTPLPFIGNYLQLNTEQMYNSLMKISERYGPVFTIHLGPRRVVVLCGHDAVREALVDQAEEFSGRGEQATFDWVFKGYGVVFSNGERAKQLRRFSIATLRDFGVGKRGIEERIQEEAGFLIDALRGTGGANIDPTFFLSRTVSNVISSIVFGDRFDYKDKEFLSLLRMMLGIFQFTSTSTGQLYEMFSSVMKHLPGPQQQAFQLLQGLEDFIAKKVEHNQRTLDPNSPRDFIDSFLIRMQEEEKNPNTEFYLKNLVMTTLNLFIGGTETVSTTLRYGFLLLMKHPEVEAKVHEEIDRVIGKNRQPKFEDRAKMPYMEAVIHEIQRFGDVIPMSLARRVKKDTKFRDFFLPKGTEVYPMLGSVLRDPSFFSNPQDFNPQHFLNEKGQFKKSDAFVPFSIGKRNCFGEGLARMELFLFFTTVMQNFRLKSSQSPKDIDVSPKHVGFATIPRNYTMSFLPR
As to the kind of experiment: Inhibition of CYP2A6. In kind it is ADME.

Another assay concerns the target Dipeptidyl peptidase 2 (Homo sapiens, UniProt Q9UHL4). As to the kind of experiment: Inhibition of DPP2.

In the case of `Cn1c(=O)c2c(cc(N3CCC[C@@](C)(N)C3)n2Cc2cc(F)ccc2C#N)n(C)c1=O`, the IC50 against Cytochrome P450 2A6 and against Dipeptidyl peptidase 2 was above 50 µM in each case.
